# Experimental data from patent publication US20090111736A1, “Orally-Absorbed Solid Dose Formulation for Vancomycin” (SRI International, priority 2007, published 2009).
# Counter-ions that a name gives are not always drawn. Like-named read-outs stand apart in the source and are kept apart here.
# What was measured:
# [1] = system: rat jejunum; assay: In vitro mucosal-to-serosal vancomycin transport, modified Ussing chambers, jejunum; format: in vitro ADME; conditions: jejunum
# Text: We investigated regional variation in permeation of vancomycin (VCM) across various segments of rat intestine and colon in vitro by mounting isolated segments of rat intestine and colon between horizontal modified Ussing chambers. The effects of drug concentration and of addition of a p-glycoprotein inhibitor or permeation enhancer(s) as formulation additives on VCM permeation were also studied in vitro using segments of rat jejunum.
# Methods: A modified Ussing system (Easy mount Ussing system, Physiological Instruments Inc., CA, Item # EM-CSYS-8) with eight sets of chambers was used for all in vitro studies; each set consisted of two parallel diffusion chambers, a heating block for temperature control, needle valves for gas flow adjustment and gas mixing, and Ag/AgCl voltage and current electrodes for measuring transepithelial voltage and for passing current.
# Harvesting of required small intestinal or colon segments of a male rat was performed using experimental procedures described in the literature (Gotoh et al., J Biomol Screen (2005) 10:517-23). The harvested segments of small intestine or colon were mounted on sliders placed between the two horizontal chambers of a modified Ussing system.
# VCM was dissolved in HEPES buffer pH 7.4 (Table 1) previously saturated with 100% O2 or HEPES buffer containing additives selected from permeation enhancer(s) and/or an efflux transport inhibitor (Table 2) to obtain predetermined concentrations of drug and additive(s).
# Drug transport across epithelial membranes of harvested rat small intestine and colon segments, in mucosal-to-serosal (M-to-S) direction, was studied using modified Ussing Chambers. Aliquots of HEPES buffer (5 ml) were initially added to both the mucosal and serosal chambers and allowed to equilibrate for 20 minutes. The HEPES buffer in the mucosal chamber was replaced by a study sample containing VCM alone or VCM and selected additive(s) in HEPES buffer, e.g., 5 mg/mL of VCM dissolved in HEPES buffer containing 10% w/w Labrasol®. Aliquots of 0.5 mL buffer solutions were removed periodically from serosal chambers, and replaced with equal volumes of fresh warm (37±2° C.) HEPES buffer previously saturated with 100% O2. […]
# Changes in transepithelial short-circuit current (in micro-Amps) and membrane resistance (in Ohms) as a function of time were monitored continuously during in vitro studies to serve as indicators of tissue viability and drug permeability, respectively. The buffer samples from the receptor chambers were analyzed for VCM content on a high pressure liquid chromatograph (HPLC; Hewlett Packard Model 1100 series).
# The analysis of VCM samples was performed using a reverse phase gradient HPLC method, with a Hypersil BDS C18 column, 5 μm, 150×4.6 mm., mobile phase consisting of 5 mM potassium phosphate monobasic in water (pH 3) as solvent A and acetonitrile as solvent B at a flow rate of 1 ml/min (Farin et al., J Pharm Biomed Anal (1998) 18:367-72). The eluant was monitored by a UV/diode array detector at 280 nm.
# To compare data obtained from different in vitro experiments, the apparent permeability coefficients were calculated using the equation: […]
# Where dQ/dt is the linear appearance rate of mass in receiver compartment, C0 is the initial solute concentration in donor compartment, and A is the surface area (Luo et al., Drug Metab Dispos (2002) 30:763-70).
# [2] = rats, cited from earlier work
compound,measurement,setting,value
CN[C@H](CC(C)C)C(=O)N[C@H]1C(=O)N[C@@H](CC(N)=O)C(=O)N[C@H]2C(=O)N[C@H]3C(=O)N[C@H](C(=O)N[C@H](C(=O)O)c4cc(O)cc(O)c4-c4cc3ccc4O)[C@H](O)c3ccc(c(Cl)c3)Oc3cc2cc(c3O[C@@H]2O[C@H](CO)[C@@H](O)[C@H](O)[C@H]2O[C@H]2C[C@](C)(N)[C@H](O)[C@H](C)O2)Oc2ccc(cc2Cl)[C@H]1O [Vancomycin hydrochloride],Ave. Cumulative Amt VCM Released,"[1]; 50 mg/ml in HEPES buffer without enhancer, 1.0 hr",7.94 ± 5.19 µg
same,Ave. Cumulative Amt VCM Released,"[1]; 50 mg/ml in HEPES buffer without enhancer, 1.5 hr",22.26 ± 4.61 µg
same,Ave. Cumulative Amt VCM Released,"[1]; 50 mg/ml in HEPES buffer without enhancer, 2.0 hr",46.13 ± 1.25 µg
same,Ave. Cumulative Amt VCM Released,"[1]; 50 mg/ml in HEPES buffer without enhancer, 2.5 hr",69.54 ± 4.20 µg
same,Ave. Cumulative Amt VCM Released,"[1]; 5% Gelucire ® 44/14 (w/w), 0.5 hr",0.40 ± 0.79 µg
same,Ave. Cumulative Amt VCM Released,"[1]; 5% Gelucire ® 44/14 (w/w), 1.0 hr",3.72 ± 0.40 µg
same,Ave. Cumulative Amt VCM Released,"[1]; 5% Gelucire ® 44/14 (w/w), 1.5 hr",6.81 ± 1.07 µg
same,Ave. Cumulative Amt VCM Released,"[1]; 5% Gelucire ® 44/14 (w/w), 2.0 hr",10.87 ± 1.53 µg
same,Ave. Cumulative Amt VCM Released,"[1]; 5% Gelucire ® 44/14 (w/w), 2.5 hr",14.29 ± 2.36 µg
same,Ave. Cumulative Amt VCM Released,"[1]; 5% Gelucire ® 44/14 + 5% Labrasol ® (w/w), 0.5 hr",0.81 ± 1.40 µg
same,Ave. Cumulative Amt VCM Released,"[1]; 5% Gelucire ® 44/14 + 5% Labrasol ® (w/w), 1.0 hr",3.56 ± 0.25 µg
same,Ave. Cumulative Amt VCM Released,"[1]; 5% Gelucire ® 44/14 + 5% Labrasol ® (w/w), 1.5 hr",6.63 ± 1.67 µg
same,Ave. Cumulative Amt VCM Released,"[1]; 5% Gelucire ® 44/14 + 5% Labrasol ® (w/w), 2.0 hr",9.58 ± 1.81 µg
same,Ave. Cumulative Amt VCM Released,"[1]; 5% Gelucire ® 44/14 + 5% Labrasol ® (w/w), 2.5 hr",13.78 ± 5.10 µg
same,Ave. Cumulative Amt VCM Released,"[1]; 5% Polysorbate-80 (w/w), 0.5 hr",0.00 ± 0.00 µg
same,Ave. Cumulative Amt VCM Released,"[1]; 5% Polysorbate-80 (w/w), 1.0 hr",2.33 ± 0.24 µg
same,Ave. Cumulative Amt VCM Released,"[1]; 5% Polysorbate-80 (w/w), 1.5 hr",5.69 ± 1.64 µg
same,Ave. Cumulative Amt VCM Released,"[1]; 5% Polysorbate-80 (w/w), 2.0 hr",10.15 ± 2.82 µg
same,Ave. Cumulative Amt VCM Released,"[1]; 5% Polysorbate-80 (w/w), 2.5 hr",15.99 ± 3.24 µg
same,Ave. Cumulative Amt VCM Released,"[1]; 5% Polysorbate-80 + 5% w/w Labrasol ®, 0.5 hr",0.00 ± 0.00 µg
same,Ave. Cumulative Amt VCM Released,"[1]; 5% Polysorbate-80 + 5% w/w Labrasol ®, 1.0 hr",2.36 ± 0.16 µg
same,Ave. Cumulative Amt VCM Released,"[1]; 5% Polysorbate-80 + 5% w/w Labrasol ®, 1.5 hr",3.85 ± 0.39 µg
same,Ave. Cumulative Amt VCM Released,"[1]; 5% Polysorbate-80 + 5% w/w Labrasol ®, 2.0 hr",6.05 ± 0.80 µg
same,Ave. Cumulative Amt VCM Released,"[1]; 5% Polysorbate-80 + 5% w/w Labrasol ®, 2.5 hr",10.12 ± 1.39 µg
same,Ave. Cumulative Amt VCM Released,"[1]; 5% TPGS ® + 5% Labrasol ® (w/w), 0.5 hr",0.00 ± 0.00 µg
same,Ave. Cumulative Amt VCM Released,"[1]; 5% TPGS ® + 5% Labrasol ® (w/w), 1.0 hr",1.26 ± 1.78 µg
same,Ave. Cumulative Amt VCM Released,"[1]; 5% TPGS ® + 5% Labrasol ® (w/w), 1.5 hr",3.48 ± 1.13 µg
same,Ave. Cumulative Amt VCM Released,"[1]; 5% TPGS ® + 5% Labrasol ® (w/w), 2.0 hr",6.40 ± 2.08 µg
same,Ave. Cumulative Amt VCM Released,"[1]; 5% TPGS ® + 5% Labrasol ® (w/w), 2.5 hr",10.03 ± 3.20 µg
same,Papp value compared with VCM alone,[1]; 5% w/w Labrasol® with 5% w/w Gelucire® 44/14,slightly higher than that of VCM alone
same,effect on M-to-S transport of VCM,[1]; 5% w/w Labrasol® with 5% w/w Polysorbate 80,slightly reduced VCM transport
same,effect on M-to-S transport of VCM,[1]; 5% w/w Labrasol® with 5% w/w Vitamin E TPGS®,slightly reduced VCM transport
same,Ave. Cumulative Amt VCM Released,"[1]; 10% Labrasol ® (w/w), 0.5 hr",3.65 ± 1.22 µg
same,Ave. Cumulative Amt VCM Released,"[1]; 10% Labrasol ® (w/w), 1.0 hr",3.72 ± 2.58 µg
same,Ave. Cumulative Amt VCM Released,"[1]; 10% Labrasol ® (w/w), 1.5 hr",5.52 ± 1.36 µg
same,Ave. Cumulative Amt VCM Released,"[1]; 10% Labrasol ® (w/w), 2.0 hr",7.48 ± 1.11 µg
same,Ave. Cumulative Amt VCM Released,"[1]; 10% Labrasol ® (w/w), 2.5 hr",9.93 ± 1.23 µg
same,VCM transport compared with VCM alone or other excipients,[1]; 10% w/w Labrasol®,lowest
same,effect on M-to-S transport of VCM,[1]; Gelucire® 44/14 at 5% w/w,enhanced M-to-S transport
same,Ave. Cumulative Amt VCM Released,"[1]; HEPES only, no enhancer (enhancer / bile salt study), 0.5 hr",0.00 ± 0.00 µg
same,Ave. Cumulative Amt VCM Released,"[1]; HEPES only, no enhancer (enhancer / bile salt study), 1.0 hr",2.16 ± 1.47 µg
same,Ave. Cumulative Amt VCM Released,"[1]; HEPES only, no enhancer (enhancer / bile salt study), 1.5 hr",4.13 ± 0.74 µg
same,Ave. Cumulative Amt VCM Released,"[1]; HEPES only, no enhancer (enhancer / bile salt study), 2.0 hr",8.28 ± 1.80 µg
same,Ave. Cumulative Amt VCM Released,"[1]; HEPES only, no enhancer (enhancer / bile salt study), 2.5 hr",14.45 ± 3.07 µg
same,Ave. Cumulative Amt VCM Released,"[1]; No SD (sodium decanoate study), 0.5 hr",0.00 ± 0.00 µg
same,Ave. Cumulative Amt VCM Released,"[1]; No SD (sodium decanoate study), 1.0 hr",0.00 ± 0.00 µg
same,Ave. Cumulative Amt VCM Released,"[1]; No SD (sodium decanoate study), 1.5 hr",0.00 ± 0.00 µg
same,Ave. Cumulative Amt VCM Released,"[1]; No SD (sodium decanoate study), 2.0 hr",1.43 ± 0.10 µg
same,Ave. Cumulative Amt VCM Released,"[1]; No SD (sodium decanoate study), 2.5 hr",2.15 ± 0.19 µg
same,effect on M-to-S transport of VCM,[1]; Polysorbate 80 at 5% w/w,enhanced M-to-S transport
same,absolute bioavailability,"[2]; oral administration of a water-in-oil-in-water (w/o/w) emulsion, VCM in inner aqueous phase",About 30%
same,absolute bioavailability,"[2]; oral, without any added absorption enhancer or enzyme inhibitor",less than 5%
